14 molecules from patent US20200087258A1, “INHIBITOR OF CITRATE TRANSPORTER AND THEIR USE IN THERAPY” (Eternygen GmbH, priority 2017, published 2020) can be followed below.

Where only a bound is given, the exact number is not on record here.

Common to all, as to format: cell-based
For test [1], the target named is T1, INDY (Homo sapiens, UniProt Q86YT5). Nature of the test: 14C-citrate uptake in HepG2 cells endogenously expressing INDY (NaCT). The settings on record: endogenous INDY. Put shortly:
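HepG2 cells, which express INDY endogenously, were preincubated with compound for 5 min at 37 °C in pH 6.5 Na+ citrate uptake buffer. 14C-citrate ([…]) was then added for 90 min at 37 °C. After washing and NaOH lysis, uptake was measured by scintillation counting, with 5 mM citrate as positive control.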

The next test addresses T2, GLUT1 (Homo sapiens, UniProt P11166).
T2 construct: Huh-7 cells which endogenously express GLUT1; endogenous in cells; host or cells: Huh-7
T2 sequence (P11166 1-492): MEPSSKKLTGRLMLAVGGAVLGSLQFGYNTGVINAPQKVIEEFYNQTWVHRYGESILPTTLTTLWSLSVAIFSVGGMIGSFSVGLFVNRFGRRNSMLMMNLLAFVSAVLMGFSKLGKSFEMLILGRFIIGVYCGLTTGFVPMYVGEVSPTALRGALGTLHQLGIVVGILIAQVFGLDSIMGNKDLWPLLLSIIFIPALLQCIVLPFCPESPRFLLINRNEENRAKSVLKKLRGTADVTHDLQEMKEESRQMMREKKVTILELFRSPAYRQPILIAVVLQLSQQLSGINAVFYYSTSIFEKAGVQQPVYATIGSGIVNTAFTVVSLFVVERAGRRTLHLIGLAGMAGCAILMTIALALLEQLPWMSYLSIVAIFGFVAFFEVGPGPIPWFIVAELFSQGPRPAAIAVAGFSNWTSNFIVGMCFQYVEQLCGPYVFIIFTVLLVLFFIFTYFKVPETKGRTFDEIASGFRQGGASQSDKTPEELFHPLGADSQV
Nature of the test: 3H-glucose uptake counter assay in Huh7 cells endogenously expressing GLUT1. Conditions: endogenous GLUT1. The procedure: (§1) The compound was obtained by screening of a library containing more than 50,000 lead-like compounds and fragments. The library was tested using a functional citrate uptake assay with HEK293 cells overexpressing recombinant human INDY. The following hit confirmation was conducted in the same assay system. To confirm the activity of selected compounds on the target INDY another cell assay was conducted. In this assay system citrate uptake was measured using HepG2 cells which endogenously express INDY. Furthermore selectivity of selected compounds was tested for two other transporters in different assay systems. The first transporter was the glutamate transporter GLT-1 tested in a glutamate uptake assays using HEK293 cells overexpressing recombinant human GLT-1. The second transporter was the glucose transporter GLUT1 tested in a glucose uptake assay using Huh-7 cells which endogenously express GLUT1. Compounds were considered to be selective with an at least 5-fold higher activity for INDY than for the other two transporters.
Cells were maintained in cell medium using cell culture grade flasks (CellSTACK Corning, 500 cm2 dishes or T175 depending on cell number). The selection antibiotic and G418 (800 μg/ml) was added during cultivation but not for seeding into assay plates. For splitting, cells were washed with PBS (w/o Ca2+, Mg2+, phenol red) and detached with Trypsin/EDTA. Throughout cultivation cells were kept sub-confluent. Detached cells (50,000 cells/well) were seeded in 96-well plates (white, clear bottom from Corning #655098) and incubated over night before usage in the assay. The following media were used. For HEK293 cells expressing INDY MEM (PAA)+10% FCS+1×P/S+2 mM L-Gln; for HEK293 cells expressing GLT-1 DMEM (Gibco)+10% FCS+400 µg/ml G418; for Huh7 cells DMEM (Gibco)+10% FCS+2 mM L-Gin (+1×P/S); for HepG2 cells MEM (PAA, Cat # E15-024)+10% FCS+2 mM L-Gin+1×NEAA+1 mM Na-Pyruvat […]
Glucose uptake in Huh7 cells was measured as a counter assay. […] After 20 min incubation at RT plates were measured using TopCount system, Perkin Elmer. […]

A further test has as its target T3, GLT-1 (Homo sapiens, UniProt P43004).
T3 construct: host or cells: HEK293 (virus made in GP293 packaging cells)
As to the kind of experiment: 3H-glutamate uptake counter assay in HEK293 cells overexpressing human GLT-1. The procedure:
as §1
Cells were maintained in cell medium using cell culture grade flasks (CellSTACK Corning, 500 cm2 dishes or T175 depending on cell number). The selection antibiotic and G418 (800 μg/ml) was added during cultivation but not for seeding into assay plates. For splitting, cells were washed with PBS (w/o Ca2+, Mg2+, phenol red) and detached with Trypsin/EDTA. Throughout cultivation cells were kept sub-confluent. Detached cells (50,000 cells/well) were seeded in 96-well plates (white, clear bottom from Corning #655098) and incubated over night before usage in the assay. The following media were used. For HEK293 cells expressing INDY MEM (PAA)+10% FCS+1×P/S+2 mM L-Gln; for HEK293 cells expressing GLT-1 DMEM (Gibco)+10% FCS+400 µg/ml G418; for Huh7 cells DMEM (Gibco)+10% FCS+2 mM L-Gin (+1×P/S); for HepG2 cells MEM (PAA, Cat # E15-024)+10% FCS+2 mM L-Gin+1×NEAA+1 mM Na-Pyruvat
The following assay buffers for the particular uptake reaction were used. Citrate uptake buffer: 120 mM NaCl, 5.4 mM KCl, 0.8 mM MgSO4, 5 mM glucose, 1.8 mM CaCl2, 25 mM Hepes, 25 mM MES, pH 6.5. Glutamate uptake buffer: HBSS, 1 mM CaCl2, 1 mM MgCl2, 20 mM Hepes pH 7.4. Glucose uptake buffer: 25 mM Hepes+25 mM MES pH 7.4, 120 mM NaCl, 5.4 mM KCl, 1.8 mM CaCl2, 0.8 mM MgSO4.
As a counter assay, Glutamate uptake by the GLT-1 transporter was used. The principle of the assay is to measure the uptake of ^3H labelled glutamate into HEK cells, which overexpress human GLT-1.
The generation of a GLT-1 cell line was performed as follows: human GLT11 isoform sv1 cDNA (Origene # RC223924) was cloned into vector pFB-Neo-CMV-hGLT1 using QIAfilter Plasmid Midi Kit (Qiagen). Virus was generated in GP293 packaging cells (transfection of plasmid with Lipofectamine 2000+OptiMEM). For transfection into HEK cells GP293, supernatant containing virus was passed through a 0.45 micron sterile filter and DEAE-dextran was added at […] final concentration. The solution was used to transfect HEK293 cells at 37° C., 8.5% CO2. After 24 h selection marker G418 at 400 μg/ml was added and cultivation medium performed in DMEM 10% FBS.
The assay was performed in a 96-well format using repeated washing steps, cell lysis and addition of scintillation fluid. Assay buffer was HBSS, 1 mM CaCl2, 1 mM MgCl2, […] pH 7.4. Cells were seeded into white clear-bottom 96-well plates (50,000/well) in the presence of Poly-D-Lysine and incubated at 37° C. for 16-24 hours. Subsequently the plates were washed once with assay buffer using automated washing/LS 405 Selectors, BioTek ending with a buffer volume of 40 μl. Then 5 μl of compound solution in assay buffer was added and incubated for 20 min at 37° C. in cell incubator, HERA cell Heraeus. Afterwards 10 μl of substrate 3H-Glu (3 nM) were added and incubated for another 20 min at 37° C. in cell incubator, HERAcell. Then the plates were washed once with 200 μl cold assay buffer and 150 μl scintillation fluid was added. […]

Test [2] deals with T1, INDY. As to the kind of experiment: 14C-citrate uptake in HEK293 cells overexpressing recombinant human INDY (NaCT). More on the design: expressed in transfected cells; host or cells: HEK293. Put shortly: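 HEK293 cells overexpressing human NaCT, 50,000/well, preincubated 5-30 min at 37 °C with compound in pH 6.5 Na+ buffer. 14C-citrate ([…]) uptake then ran 20-90 min at 37 °C, followed by ice-cold washes, NaOH lysis and scintillation counting. 10 mM citrate served as positive control.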

T3 sequence (P43004 whole entry): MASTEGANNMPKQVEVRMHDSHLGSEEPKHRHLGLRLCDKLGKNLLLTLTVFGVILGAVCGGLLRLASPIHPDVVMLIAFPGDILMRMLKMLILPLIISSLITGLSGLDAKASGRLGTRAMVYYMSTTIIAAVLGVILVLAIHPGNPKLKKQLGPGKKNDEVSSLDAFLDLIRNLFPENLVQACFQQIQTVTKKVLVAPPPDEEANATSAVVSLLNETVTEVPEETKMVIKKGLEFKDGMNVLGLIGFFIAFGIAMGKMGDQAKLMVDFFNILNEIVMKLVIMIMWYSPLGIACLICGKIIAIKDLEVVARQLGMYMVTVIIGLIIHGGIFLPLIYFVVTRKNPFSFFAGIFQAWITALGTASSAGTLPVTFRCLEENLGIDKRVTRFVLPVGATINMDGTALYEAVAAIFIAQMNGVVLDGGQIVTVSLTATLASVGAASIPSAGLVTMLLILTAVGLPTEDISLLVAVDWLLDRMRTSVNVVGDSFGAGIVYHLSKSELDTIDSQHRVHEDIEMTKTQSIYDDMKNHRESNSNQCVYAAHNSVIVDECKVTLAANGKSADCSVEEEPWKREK
T1 sequence (Q86YT5 whole entry): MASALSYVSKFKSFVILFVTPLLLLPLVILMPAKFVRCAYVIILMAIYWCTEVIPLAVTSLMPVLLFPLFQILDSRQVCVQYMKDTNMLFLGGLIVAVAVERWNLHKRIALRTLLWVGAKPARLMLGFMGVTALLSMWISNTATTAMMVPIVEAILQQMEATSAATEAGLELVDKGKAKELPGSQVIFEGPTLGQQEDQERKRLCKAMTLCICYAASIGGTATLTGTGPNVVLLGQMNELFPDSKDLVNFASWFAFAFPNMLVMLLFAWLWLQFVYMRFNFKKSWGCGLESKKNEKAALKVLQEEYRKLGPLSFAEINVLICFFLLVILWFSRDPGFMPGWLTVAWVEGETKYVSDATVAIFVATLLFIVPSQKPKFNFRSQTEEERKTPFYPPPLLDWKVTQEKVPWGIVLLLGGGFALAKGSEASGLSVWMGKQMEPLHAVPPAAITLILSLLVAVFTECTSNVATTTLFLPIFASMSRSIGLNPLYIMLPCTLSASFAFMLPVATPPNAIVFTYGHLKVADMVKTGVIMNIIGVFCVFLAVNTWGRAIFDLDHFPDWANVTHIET

For the molecule `O=C(NCc1ccccc1F)C1CN(S(=O)(=O)/C=C/c2ccccc2)C1` [Example 1, N-[(2-fluorophenyl)methyl]-1-[(E)-phenylethenesulfonyl]azetidine-3-carboxamide], the IC50 against INDY [1] was 5.4 µM; against GLUT1, greater than 50 µM.
As to `O=C(NCc1ccccc1F)C1CCN(S(=O)(=O)c2ccc(OC(F)(F)F)cc2)CC1` [Example 29, N-[(2-fluorophenyl)methyl]-1-[4-(trifluoromethoxy)benzenesulfonyl]piperidine-4-carboxamide], the IC50 at INDY [1] was 0.4 µM; against GLT-1 it was greater than 20 µM; at INDY [2], 0.5 µM.
With `CC(C)(C)c1ccc(S(=O)(=O)N2CCC(C(=O)NCc3ccccn3)CC2)cc1` [Example 37, 1-(4-tert-butylbenzenesulfonyl)-N-[(pyridin-2-yl)methyl]piperidine-4-carboxamide], the IC50 against INDY [1] was 1.1 µM; on GLT-1, greater than 20 µM; on INDY [2] it was 0.8 µM.
With `CC(C)(C)c1ccc(S(=O)(=O)N2CC(C(=O)NCc3ccccc3Cl)C2)cc1` [Example 49, 1-(4-tert-butylbenzenesulfonyl)-N-[(2-chlorophenyl)methyl]azetidine-3-carboxamide], the IC50 against INDY [1] was 9 µM; against GLT-1, greater than 20 µM; on INDY [2], 6.4 µM.
Consider `Cc1cc(C)cc(S(=O)(=O)N2CCC(C(=O)NCc3ccccn3)CC2)c1` [Example 60, 1-(3,5-dimethylbenzenesulfonyl)-N-[(pyridin-2-yl)methyl]piperidine-4-carboxamide], for which the results for the concentration for half-maximal inhibition (IC50) against INDY [1], on GLT-1 and at INDY [2] were 0.7 µM, greater than 20 µM and 1.3 µM, respectively.
On to `O=C(NCc1ccccn1)C1CCN(S(=O)(=O)c2ccc(Cl)cc2Cl)CC1` [Example 73, 1-(2,4-dichlorobenzenesulfonyl)-N-[(pyridin-2-yl)methyl]pipendine-4-carboxamide], for which the IC50 is 1.6 µM against INDY [1], greater than 20 µM on GLT-1 and 2.4 µM on INDY [2].
Consider `O=C(NCc1ccccc1O)C1CCN(S(=O)(=O)c2cc(Cl)cc(Cl)c2)CC1` [Example 79, 1-(3,5-dichlorobenzenesulfonyl)-N-[(2-hydroxyphenyl)methyl]pipendine-4-carboxamide], for which the IC50 against INDY [1] is 0.1 µM; against GLT-1, greater than 20 µM; at INDY [2], 0.2 µM.
In the case of `Nc1ccccc1CNC(=O)C1CCN(S(=O)(=O)c2cc(Cl)cc(Cl)c2)CC1` [Example 81, N-[(2-aminophenyl)methyl]-1-(3,5-dichlorobenzenesulfonyl)pipendine-4-carboxamide], the IC50 is 0.1 µM at INDY [1], greater than 20 µM against GLT-1 and 0.4 µM on INDY [2].
As to `O=C(NCc1ccccc1O)C1CCN(S(=O)(=O)c2ccc(C(F)(F)F)cc2)CC1` [Example 82, N-[(2-hydroxyphenyl)methyl]-1-[4-(trifluoromethyl)benzenesulfonyl]pipendine-4-carboxamide], the results for the IC50 against INDY [1], on GLT-1 and at INDY [2] were 0.6 µM, greater than 20 µM and 1.1 µM, respectively.
As for `[N-]=[N+]=NCc1ccccc1CNC(=O)C1CCN(S(=O)(=O)c2cc(Cl)cc(Cl)c2)CC1` [Example 92, N-([2-(azidomethyl)phenyl]methyl)-1-(3,5-dichlorobenzenesulfonyl)piperidine-4-carboxamide], the IC50 against INDY [1] was 0.8 µM; against GLT-1 it was greater than 20 µM; at INDY [2], 1 µM.
The corresponding values for `O=C(NCc1ccccn1)C1CCN(S(=O)(=O)c2cc(Cl)cc(Br)c2)CC1` [Example 96, 1-(3-bromo-5-chlorobenzenesulfonyl)-N-[(pyridin-2-yl)methyl]piperidine-4-carboxamide] are 0.3 µM, greater than 20 µM and 0.4 µM.
`O=C(NCc1ccccc1)C1CCN(S(=O)(=O)c2cc(Cl)cc(Cl)c2)CC1` [Example 103, N-benzyl-1-(3,5-dichlorobenzenesulfonyl)piperidine-4-carboxamide]: the IC50 against INDY [1] is 0.1 µM; against GLT-1, greater than 20 µM; at INDY [2] it was 0.1 µM.
For `CC(C)c1ccc(S(=O)(=O)N2CCC(C(=O)NCc3ccccn3)CC2)cc1` [Example 111, 1-[4-(propan-2-yl)benzenesulfonyl]-N-[(pyridin-2-yl)methyl]piperidine-4-carboxamide], the IC50 is 5.2 µM against INDY [1], greater than 20 µM against GLT-1 and 2.7 µM on INDY [2].
Take `CC(F)c1cccc(S(=O)(=O)N2CCC(C(=O)NCc3ccccc3F)CC2)c1` (centres unmarked) [Example 112, 1-[3-(1-fluoroethyl)benzenesulfonyl]-N-[(2-fluorophenyl)methyl]piperidine-4-carboxamide]: the IC50 at INDY [1] was 0.9 µM; on GLT-1 it was greater than 20 µM; at INDY [2], 1.4 µM.

Broadly, the IC50 is the concentration that gives 50% inhibition.
